Experiment: Solubility of biocides in solvents at 25° C.
Details: for Solubility of biocides: Tebucanozole: Tebucanozole dissolved in the solvent, 25° C.
Method: Solubility of two fungicides, one herbicide and two insecticides in different dialkyl amides at 25° C. was tested.

Row | SMILES | Solubility of biocides: Tebucanozole | able to dissolve or disperse a wide range of biocides better than solvents known from the state of the art (wide range of biocides, versus state-of-the-art solvents)
1 | CCCCNC(=O)OCCO [Example 7] | 20 % b.w. | 
2 | CCCNC(=O)OCCO [Example 8] | 23 % b.w. | 
3 | CN(C)C(=O)OCCO [Example 5] |  | 20%

From patent US8790675B2, “Biocide compositions comprising carbamates” (priority 2009, dated 2014)
